Measured values as given in patent US20130109682A1, “CYCLIC ETHER COMPOUNDS USEFUL AS KINASE INHIBITORS” (NOVARTIS AG, priority 2010, published 2013).

Key:
KDR kinase = KDR kinase (Homo sapiens, UniProt P35968); assay: KDR kinase inhibition assay (LanthaScreen TR-FRET); format: biochemical; conditions: TR-FRET assay
Outline: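 Human KDR kinase (0.38 nM) phosphorylated poly-EAY (50 nM) with ATP in 50 mM Tris pH 7.4, 2 mM DTT, 10 mM Mg, 1 mM Ca for 1 h. Reaction stopped with EDTA, Tb-labeled P-20 antibody added for 45 min, and TR-FRET read as end point.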

FLT3D835Y kinase = biological target: T1, FLT3D835Y kinase (Homo sapiens, UniProt P36888, D835Y); assay: FLT3D835Y kinase inhibition assay (LanthaScreen TR-FRET); format: biochemical; conditions: read-out: FLT3 IC50
T1 sequence (P36888 27-993 D835Y): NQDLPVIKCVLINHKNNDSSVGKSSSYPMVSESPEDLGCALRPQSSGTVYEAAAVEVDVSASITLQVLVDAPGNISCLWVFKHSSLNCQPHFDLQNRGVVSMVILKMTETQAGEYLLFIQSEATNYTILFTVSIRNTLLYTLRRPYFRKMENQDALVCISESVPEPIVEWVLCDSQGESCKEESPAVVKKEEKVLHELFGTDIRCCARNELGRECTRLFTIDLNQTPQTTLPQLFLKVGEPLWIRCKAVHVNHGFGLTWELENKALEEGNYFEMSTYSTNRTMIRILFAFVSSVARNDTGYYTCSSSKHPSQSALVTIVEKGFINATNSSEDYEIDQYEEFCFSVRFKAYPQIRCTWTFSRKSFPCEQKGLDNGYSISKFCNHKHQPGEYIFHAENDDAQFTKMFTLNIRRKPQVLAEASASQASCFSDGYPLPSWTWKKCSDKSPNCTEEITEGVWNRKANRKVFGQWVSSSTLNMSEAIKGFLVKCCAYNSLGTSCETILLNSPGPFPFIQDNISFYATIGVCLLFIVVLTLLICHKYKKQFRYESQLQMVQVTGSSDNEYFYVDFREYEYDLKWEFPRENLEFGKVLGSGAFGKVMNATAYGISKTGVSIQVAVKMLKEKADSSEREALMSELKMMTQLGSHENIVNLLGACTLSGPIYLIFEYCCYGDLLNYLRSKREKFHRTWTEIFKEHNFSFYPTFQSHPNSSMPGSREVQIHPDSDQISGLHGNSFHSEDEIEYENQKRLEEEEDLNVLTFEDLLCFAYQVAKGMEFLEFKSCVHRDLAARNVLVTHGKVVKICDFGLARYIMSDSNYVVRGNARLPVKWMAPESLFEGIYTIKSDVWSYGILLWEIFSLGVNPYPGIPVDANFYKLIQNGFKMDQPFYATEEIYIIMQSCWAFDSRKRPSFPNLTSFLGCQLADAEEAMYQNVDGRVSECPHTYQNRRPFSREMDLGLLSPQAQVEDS
Outline: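 TR-FRET with 5.7 nM FLT3D835Y, 50 nM polyEAY substrate, 2 μM ATP (f.c.), 3 mM Mg and 3 mM Mn in 50 mM TRIS-HCl pH 7.4 with DTT, Tween 20 and Na3VO4. Reaction 1 h, stopped with EDTA, then Tb-labeled P-20 antibody for 45 min; single end-point reading.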

Sequence of KDR kinase (P35968 20-1356): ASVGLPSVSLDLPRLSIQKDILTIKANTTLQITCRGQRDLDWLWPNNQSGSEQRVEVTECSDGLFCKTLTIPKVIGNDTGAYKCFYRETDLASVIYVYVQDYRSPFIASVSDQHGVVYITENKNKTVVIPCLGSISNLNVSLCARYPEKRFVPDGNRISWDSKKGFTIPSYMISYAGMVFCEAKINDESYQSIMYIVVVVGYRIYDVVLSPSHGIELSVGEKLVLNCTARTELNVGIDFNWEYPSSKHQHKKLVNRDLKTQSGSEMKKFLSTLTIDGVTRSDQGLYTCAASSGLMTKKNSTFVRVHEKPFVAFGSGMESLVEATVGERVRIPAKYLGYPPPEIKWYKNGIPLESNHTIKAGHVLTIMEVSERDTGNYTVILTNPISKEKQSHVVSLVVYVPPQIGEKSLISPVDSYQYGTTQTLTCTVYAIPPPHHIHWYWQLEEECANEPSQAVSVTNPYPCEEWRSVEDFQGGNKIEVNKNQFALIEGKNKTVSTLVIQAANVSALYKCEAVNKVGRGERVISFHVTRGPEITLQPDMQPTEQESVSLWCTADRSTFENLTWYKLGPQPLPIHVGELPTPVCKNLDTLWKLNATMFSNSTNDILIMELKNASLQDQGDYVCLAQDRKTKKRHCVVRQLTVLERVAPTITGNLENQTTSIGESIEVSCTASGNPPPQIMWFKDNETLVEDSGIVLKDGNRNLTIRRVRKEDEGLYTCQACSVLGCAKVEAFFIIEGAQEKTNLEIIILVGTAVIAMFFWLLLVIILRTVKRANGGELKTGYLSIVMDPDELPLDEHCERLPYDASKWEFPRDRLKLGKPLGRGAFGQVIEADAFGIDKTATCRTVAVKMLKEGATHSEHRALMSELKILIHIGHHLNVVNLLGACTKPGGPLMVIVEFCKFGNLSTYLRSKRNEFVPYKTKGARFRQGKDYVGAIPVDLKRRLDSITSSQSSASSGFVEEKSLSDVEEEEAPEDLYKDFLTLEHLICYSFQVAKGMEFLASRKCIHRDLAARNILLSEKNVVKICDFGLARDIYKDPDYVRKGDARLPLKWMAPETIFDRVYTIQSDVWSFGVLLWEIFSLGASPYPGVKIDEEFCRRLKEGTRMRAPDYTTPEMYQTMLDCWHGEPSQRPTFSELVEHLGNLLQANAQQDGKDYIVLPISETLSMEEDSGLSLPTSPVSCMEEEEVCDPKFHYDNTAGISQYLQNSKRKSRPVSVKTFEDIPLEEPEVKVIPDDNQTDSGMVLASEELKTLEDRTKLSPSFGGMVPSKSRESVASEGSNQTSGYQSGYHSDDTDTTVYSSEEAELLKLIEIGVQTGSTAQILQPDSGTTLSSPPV

| IC50 (KDR kinase) | IC50 (FLT3D835Y kinase) | Structure (SMILES) |
| --- | --- | --- |
| 38 nM | 2.7 nM | C[C@H]1O[C@@H](c2ccncc2NC(=O)c2nc(-c3ccccc3)cnc2N)C[C@@H](N)[C@]1(C)O [Example 228, 3-amino-N-(4-((2R,4R,5S,6R)-4-amino-5-hydroxy-5,6-dimethyltetrahydro-2H-pyran-2-yl)pyridin-3-yl)-6-phenylpyrazine-2-carboxamide] |
| 62 nM | 1.8 nM | Nc1ncc(-c2ccccc2)nc1C(=O)Nc1cnccc1[C@H]1C[C@@H](N)[C@H]2CCC[C@H]2O1 [Example 199, 3-amino-N-(4-((2R,4R,4aR,7aR)-4-aminooctahydrocyclopenta[b]pyran-2-yl)pyridin-3-yl)-6-phenylpyrazine-2-carboxamide] |
| 510 nM | 12 nM | CC[C@@H]1O[C@H](c2ccncc2NC(=O)c2nc(-c3ccccc3)cnc2N)C[C@H](N)[C@H]1O [Example 342, 3-amino-N-(4-((2S,4S,5R,6S)-4-amino-6-ethyl-5-hydroxytetrahydro-2H-pyran-2-yl)pyridin-3-yl)-6-phenylpyrazine-2-carboxamide] |
